Assay results published in ChEMBL document CHEMBL4364243, “Structure-activity relationships of potentiators of the antibiotic activity of clarithromycin against Escherichia coli” (2019).
Converted amounts (≈) assume the structure as drawn. The source made the active and inactive calls. The calls are words filed in the database; no cut-off is given here. Bridge positions count the residues as written; N and C are the ends. Square brackets hold non-standard residues; d marks the D form. Peptide text beside a SMILES is read from it. * marks the point of attachment. X1 = CC[C@H](C)CCCCC(=O)*; βNA = c1ccc2cc(N*)ccc2c1; Dab = NCC[C@H](N)C(=O)O

Assays:
Escherichia coli [1] = assay: Antibacterial activity against Escherichia coli ATCC 25922 incubated for 24 hrs by serial dilution method; assay type: functional; details: ATCC 25922, 24 h
Escherichia coli [2] = assay: Potentiation of clarithromycin-induced antibacterial activity against Escherichia coli ATCC 25922 assessed as fold reduction in clarithromycin MIC at 12.5 ug/ml incubated for 24 hrs in presence of clarithromycin; assay type: functional
Escherichia coli [3] = assay: Potentiation of clarithromycin-induced antibacterial activity against Escherichia coli ATCC 25922 assessed as clarithromycin MIC at 12.5 ug/ml incubated for 24 hrs by microtiter plate reader analysis (reference value: 64 microg/ml); assay type: functional; details: ATCC 25922, 24 h
Pseudomonas aeruginosa = assay: Potentiation of levofloxacin-induced antibacterial activity against Pseudomonas aeruginosa assessed as concentration required to decrease levofloxacin MIC by 8 fold in presence of levofloxacin; assay type: functional; details: read-out: MEC
Escherichia coli [4] = assay: Induction of inner membrane permeabilization in Escherichia coli ATCC 25922 assessed as increase in propidium iodide uptake at 1/32 to 1/2 times MIC by PI staining based flow cytometric analysis; assay type: organism-based
[5] = test system: Escherichia coli ATCC 25922; assay: Induction of outer membrane permeabilization/inhibition of AcrAB-TolC efflux pump in Escherichia coli ATCC 25922 assessed as increase in NPN uptake at 1/32 to 1/2 times MIC incubated for 10 mins in dark by fluorescence assay
Escherichia coli [6] = assay: Potentiation of clarithromycin-induced antibacterial activity against Escherichia coli ATCC 25922 assessed as fold reduction in clarithromycin MIC at 50 ug/ml incubated for 24 hrs in presence of clarithromycin; assay type: functional
Escherichia coli [7] = assay: Potentiation of calrithromycin-induced antibacterial activity against Escherichia coli ATCC 25922 assessed as clarithromycin MIC at 50 ug/ml incubated for 24 hrs by microtiter plate reader analysis (reference value: 64 microg/ml); assay type: functional; details: ATCC 25922, 24 h
[8] = test system: Escherichia coli ATCC 25922; assay: Induction of outer membrane permeabilization/inhibition of AcrAB-TolC efflux pump in Escherichia coli ATCC 25922 assessed as increase in NPN uptake incubated for 10 mins in dark by fluorescence assay
[9] = test system: Escherichia coli ATCC 25922; assay: Inhibition of efflux pump in CCCP-pretreated Escherichia coli ATCC 25922 assessed as […] by measuring decrease in fluorescence intensity pre-incubated for 5 mins followed by glucose addition by Hoechst 33342 staining based fluorescence assay

CN(C(=O)[C@@H](N)CCCN)C(CCc1ccccc1)CCc1ccccc1
MIC (Escherichia coli [1]): > 100 µg/mL
fold change (FC) (Escherichia coli [2]): 2
MIC (Escherichia coli [3]): 32 µg/mL

NCCC[C@@H](N)C(=O)N[C@H](CCc1ccccc1)C(=O)Nc1cnc2ccccc2c1
minimal effective concentration (Pseudomonas aeruginosa): 10 µg/mL

NCCC[C@H](N)C(=O)NC(CCc1ccccc1)CCc1ccccc1
MIC (Escherichia coli [1]): > 100 µg/mL
fold change (FC) (Escherichia coli [2]): 4
MIC (Escherichia coli [3]): 16 µg/mL

NCCC[C@@H](N)C(=O)N[C@H](CCc1ccccc1)COc1ccc(Cl)cc1
minimal effective concentration (Pseudomonas aeruginosa): 5 µg/mL

CN(C(=O)[C@@H](N)CCCN)C(c1ccccc1)c1ccccc1
MIC (Escherichia coli [1]): > 100 µg/mL
fold change (FC) (Escherichia coli [2]): 2
MIC (Escherichia coli [3]): 32 µg/mL

CC[C@H](C)CCCCC(=O)N[C@@H](CCN)C(=O)N[C@H](C(=O)N[C@@H](CCN)C(=O)N[C@H]1CCNC(=O)[C@H]([C@@H](C)O)NC(=O)[C@H](CCN)NC(=O)[C@H](CCN)NC(=O)[C@H](CC(C)C)NC(=O)[C@@H](Cc2ccccc2)NC(=O)[C@H](CCN)NC1=O)[C@@H](C)O (X1-[Dab]T[Dab][Dab][Dab][dF]L[Dab][Dab]T; lactam 4-C)
MIC (Escherichia coli [1]): 1.56 µg/mL (≈ 1.3 µM)
Activity (Escherichia coli [4]): Active
Activity [5]: Active

N=C(N)NCCC[C@H](N)C(=O)NC(CCc1ccccc1)CCc1ccccc1
MIC (Escherichia coli [1]): > 100 µg/mL
fold change (FC) (Escherichia coli [2]): 2
MIC (Escherichia coli [3]): 32 µg/mL

NCCC[C@H](NC(=O)[C@@H](N)Cc1ccccc1)C(=O)Nc1ccc2ccccc2c1
minimal effective concentration (Pseudomonas aeruginosa): 5 µg/mL

NC[C@@H](N)CCCNC(CCc1ccccc1)CCc1ccccc1
MIC (Escherichia coli [1]): 25 µg/mL (≈ 73.6 µM)
fold change (FC) (Escherichia coli [2]): 16
MIC (Escherichia coli [3]): 4 µg/mL

CN1CCN(C(CCc2ccccc2)CCc2ccccc2)CC1
MIC (Escherichia coli [1]): > 100 µg/mL
fold change (FC) (Escherichia coli [2]): 1
MIC (Escherichia coli [3]): 64 µg/mL

CC[C@H]1OC(=O)[C@H](C)[C@@H](O[C@H]2C[C@@](C)(OC)[C@@H](O)[C@H](C)O2)[C@H](C)[C@@H](O[C@@H]2O[C@H](C)C[C@H](N(C)C)[C@H]2O)[C@](C)(OC)C[C@@H](C)C(=O)[C@H](C)[C@@H](O)[C@]1(C)O [CLARITHROMYCIN]
MIC (Escherichia coli [1]): 64 µg/mL (≈ 85.6 µM)

NCCC[C@H](N)C(=O)NC(c1ccccc1)c1ccccc1
MIC (Escherichia coli [1]): > 100 µg/mL
fold change (FC) (Escherichia coli [2]): 1
MIC (Escherichia coli [3]): 64 µg/mL

CN(C(=O)[C@@H](N)CCCN)C(Cc1ccccc1)Cc1ccccc1
MIC (Escherichia coli [1]): > 100 µg/mL
fold change (FC) (Escherichia coli [2]): 2
MIC (Escherichia coli [3]): 32 µg/mL

NCCC[C@H](N)CNC(CCc1ccccc1)CCc1ccccc1
MIC (Escherichia coli [1]): 25 µg/mL (≈ 73.6 µM)
fold change (FC) (Escherichia coli [2]): 8
MIC (Escherichia coli [3]): 8 µg/mL

NC[C@@H](N)CCNC(CCc1ccccc1)CCc1ccccc1
MIC (Escherichia coli [1]): 100 µg/mL (≈ 307 µM)
fold change (FC) (Escherichia coli [2]): 2
MIC (Escherichia coli [3]): 32 µg/mL

NCC[C@H](N)CNC(CCc1ccccc1)CCc1ccccc1
MIC (Escherichia coli [1]): 100 µg/mL (≈ 307 µM)
fold change (FC) (Escherichia coli [2]): 4
MIC (Escherichia coli [3]): 16 µg/mL

NCCC[C@@H](N)C(=O)N[C@H](CCc1ccccc1)C(=O)Nc1ncc(C(=O)Nc2cnc3ccccc3c2)o1
minimal effective concentration (Pseudomonas aeruginosa): 5 µg/mL

NCCC[C@@H](N)C(=O)N[C@H](CCc1ccccc1)CSc1ccc(Cl)cc1
minimal effective concentration (Pseudomonas aeruginosa): 1.25 µg/mL

N=C(N)NCCC[C@H](NC(=O)[C@@H](N)Cc1ccccc1)C(=O)Nc1ccc2ccccc2c1 [PABETAN] (H-Phe-Arg-βNA)
MIC (Escherichia coli [1]): > 100 µg/mL
minimal effective concentration (Pseudomonas aeruginosa): 10 µg/mL
fold change (FC) (Escherichia coli [6]): 4
MIC (Escherichia coli [7]): 16 µg/mL

NCC[C@H](N)CC(=O)NC(CCc1ccccc1)CCc1ccccc1
MIC (Escherichia coli [1]): 100 µg/mL (≈ 283 µM)
fold change (FC) (Escherichia coli [2]): 16
MIC (Escherichia coli [3]): 4 µg/mL

NC[C@@H](N)CC(=O)NC(CCc1ccccc1)CCc1ccccc1
MIC (Escherichia coli [1]): 200 µg/mL (≈ 589 µM)
fold change (FC) (Escherichia coli [2]): 1
MIC (Escherichia coli [3]): 64 µg/mL

CNCCC[C@H](N)C(=O)NC(CCc1ccccc1)CCc1ccccc1
MIC (Escherichia coli [1]): 100 µg/mL (≈ 272 µM)
fold change (FC) (Escherichia coli [2]): 1
MIC (Escherichia coli [3]): 64 µg/mL

NCCC[C@H](N)C(=O)NC(Cc1ccccc1)Cc1ccccc1
MIC (Escherichia coli [1]): > 100 µg/mL
fold change (FC) (Escherichia coli [2]): 2
MIC (Escherichia coli [3]): 32 µg/mL

NCCC[C@@H](N)C(=O)NC(CCc1ccccc1)CCc1ccccc1
MIC (Escherichia coli [1]): > 100 µg/mL
fold change (FC) (Escherichia coli [2]): 2
MIC (Escherichia coli [3]): 32 µg/mL

NC[C@@H](N)CCC(=O)NC(CCc1ccccc1)CCc1ccccc1
MIC (Escherichia coli [1]): 100 µg/mL (≈ 283 µM)
fold change (FC) (Escherichia coli [2]): 2
MIC (Escherichia coli [3]): 32 µg/mL

NCC[C@H](N)C(=O)NC(CCc1ccccc1)CCc1ccccc1
MIC (Escherichia coli [1]): 100 µg/mL (≈ 295 µM)
fold change (FC) (Escherichia coli [2]): 2
MIC (Escherichia coli [3]): 32 µg/mL

NCC[C@H](N)CCNC(CCc1ccccc1)CCc1ccccc1
Activity [8]: Dose-dependent effect
MIC (Escherichia coli [1]): 100 µg/mL (≈ 295 µM)
fold change (FC) (Escherichia coli [2]): 32
Activity (Escherichia coli [4]): inactive
MIC (Escherichia coli [3]): 2 µg/mL
inhibition [9]: Dose-dependent effect

CN(C)CCC[C@H](N)C(=O)NC(CCc1ccccc1)CCc1ccccc1
MIC (Escherichia coli [1]): > 100 µg/mL
fold change (FC) (Escherichia coli [2]): 1
MIC (Escherichia coli [3]): 64 µg/mL

COc1ccc(CN2CCN(C(CCc3ccccc3)CCc3ccccc3)CC2)cc1
MIC (Escherichia coli [1]): > 100 µg/mL
fold change (FC) (Escherichia coli [2]): 1
MIC (Escherichia coli [3]): 64 µg/mL
